Experimental data reported in PubChem BioAssay AID206 (DTP/NCI, 2004).
Several values for one entry are separate records, joined by “and”; a condition that tells them apart may be missing. Equal values may be shown once. Results filed as inconclusive are left out.

System: nude mice, HT29 intrarenal xenograft, tumor weight T/C
Assay: NCI In Vivo Anticancer Drug Screen. Data for tumor model HT29;CX-1 Human Adenocarcinoma (MER+) (intrarenal inoculation) in NU/NU Swiss (nude) mice
Conditions: endpoint: mean tumor weight change, higher = larger tumour
How it was run: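 Mice with transplanted tumors are dosed with compound while controls get vehicle only. Survival or tumor burden is then assessed per group, and the treated value is expressed relative to control.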

[1] = dose: 100.0 mg/kg/injection, schedule: Q04DX004 (sc), vehicle: Klucel (hydroxypropylcellulose) (HPC)
[2] = dose: 200.0 mg/kg/injection, schedule: Q04DX004 (sc), vehicle: Klucel (hydroxypropylcellulose) (HPC)
[3] = dose: 400.0 mg/kg/injection, schedule: Q04DX004 (sc), vehicle: Klucel (hydroxypropylcellulose) (HPC)
[4] = dose: 150.0 mg/kg/injection, schedule: Q04DX004 (sc), vehicle: Klucel (hydroxypropylcellulose) (HPC)
[5] = dose: 300.0 mg/kg/injection, schedule: Q04DX004 (sc), vehicle: Klucel (hydroxypropylcellulose) (HPC)
[6] = dose: 600.0 mg/kg/injection, schedule: Q04DX004 (sc), vehicle: Klucel (hydroxypropylcellulose) (HPC)
[7] = dose: 1200.0 mg/kg/injection, schedule: Q04DX004 (sc), vehicle: Klucel (hydroxypropylcellulose) (HPC)
[8] = dose: 300.0 mg/kg/injection, schedule: Q04DX004 (sc), vehicle: saline with Tween-80
[9] = dose: 600.0 mg/kg/injection, schedule: Q04DX004 (sc), vehicle: saline with Tween-80
[10] = dose: 1200.0 mg/kg/injection, schedule: Q04DX004 (sc), vehicle: saline with Tween-80

O=[N+]([O-])c1ccc(-n2[nH]nnc2=S)cc1
T/C [1]: 94 % of control
T/C [2]: 92 % of control
T/C [3]: 96 % of control
T/C (dose: 800.0 mg/kg/injection, schedule: Q04DX004 (sc), vehicle: Klucel (hydroxypropylcellulose) (HPC)): 80 % of control

O=C(NO)c1ccc(O)c(O)c1
T/C (dose: 200.0 mg/kg/injection, schedule: Q04DX004 (sc), vehicle: water): 52 % of control
T/C (dose: 400.0 mg/kg/injection, schedule: Q04DX004 (sc), vehicle: water): 86 % of control

O=C(/C=C(\Cl)C(=O)NO)NO
T/C (dose: 50.0 mg/kg/injection, schedule: Q04DX004 (sc), vehicle: saline): 102 % of control
T/C (dose: 100.0 mg/kg/injection, schedule: Q04DX004 (sc), vehicle: saline): 172 % of control
T/C (dose: 200.0 mg/kg/injection, schedule: Q04DX004 (sc), vehicle: saline): 86 % of control

CN(C1=NS(=O)(=O)N=C(N(C)c2ccccc2)O1)c1ccccc1
T/C (dose: 225.0 mg/kg/injection, schedule: Q04DX004 (sc), vehicle: Klucel (hydroxypropylcellulose) (HPC)): 95 % of control
T/C (dose: 450.0 mg/kg/injection, schedule: Q04DX004 (sc), vehicle: Klucel (hydroxypropylcellulose) (HPC)): 153 % of control
T/C (dose: 1800.0 mg/kg/injection, schedule: Q04DX004 (sc), vehicle: Klucel (hydroxypropylcellulose) (HPC)): 168 % of control

C=Cc1cnc([N+](=O)[O-])n1C
T/C [4]: 110 % of control
T/C [5]: 108 % of control

CC(C)(C)C1CCCCC1
T/C [5]: 94 % of control
T/C [6]: 97 % of control
T/C [7]: 56 % of control
T/C (dose: 2400.0 mg/kg/injection, schedule: Q04DX004 (sc), vehicle: Klucel (hydroxypropylcellulose) (HPC)): 55 % of control

OCC1OC(n2cnc3c(NO)ncnc32)C(O)C1O (centres undefined)
T/C [4]: 47 % of control
T/C [5]: 46 % of control
T/C [6]: 52 % of control
T/C [7]: 28 % of control

COc1cc(Cl)ccc1C
T/C [8]: 64 % of control
T/C [9]: 90 % of control
T/C [10]: 76 % of control
T/C (dose: 2400.0 mg/kg/injection, schedule: Q04DX004 (sc), vehicle: saline with Tween-80): 84 % of control

CC(=O)[O][Pb]([O]C(C)=O)([c]1ccccc1)[c]1ccccc1
T/C (dose: 250.0 mg/kg/injection, schedule: Q04DX004 (sc), vehicle: Klucel (hydroxypropylcellulose) (HPC)): 120 % of control
T/C (dose: 500.0 mg/kg/injection, schedule: Q04DX004 (sc), vehicle: Klucel (hydroxypropylcellulose) (HPC)): 64 % of control
T/C (dose: 1000.0 mg/kg/injection, schedule: Q04DX004 (sc), vehicle: Klucel (hydroxypropylcellulose) (HPC)): 44 % of control
T/C (dose: 2000.0 mg/kg/injection, schedule: Q04DX004 (sc), vehicle: Klucel (hydroxypropylcellulose) (HPC)): 118 % of control

NCC1CCC(C(=O)O)CC1 (centres undefined)
T/C (dose: 400.0 mg/kg/injection, schedule: Q04DX004 (sc), vehicle: saline with Tween-80): 119 % of control
T/C (dose: 800.0 mg/kg/injection, schedule: Q04DX004 (sc), vehicle: saline with Tween-80): 93 % of control
T/C (dose: 1600.0 mg/kg/injection, schedule: Q04DX004 (sc), vehicle: saline with Tween-80): 112 % of control

O/N=C/c1ccccc1O.O/N=C/c1ccccc1O.[Cu]
T/C (dose: 25.0 mg/kg/injection, schedule: Q04DX004 (sc), vehicle: saline with Tween-80): 76 % of control
T/C (dose: 50.0 mg/kg/injection, schedule: Q04DX004 (sc), vehicle: saline with Tween-80): 39 % of control
T/C (dose: 100.0 mg/kg/injection, schedule: Q04DX004 (sc), vehicle: saline with Tween-80): 43 % of control
T/C (dose: 200.0 mg/kg/injection, schedule: Q04DX004 (sc), vehicle: saline with Tween-80): 61 % of control

ClCC[N+]12CC[N+](CCCl)(CC1)C2
T/C (dose: 50.0 mg/kg/injection, schedule: Q01DX010 (sc), vehicle: saline with Tween-80): 37 % of control
T/C (dose: 75.0 mg/kg/injection, schedule: Q04DX004 (sc), vehicle: water): 101 % of control
T/C (dose: 100.0 mg/kg/injection, schedule: Q01DX010 (sc), vehicle: saline with Tween-80): 90 % of control
T/C (dose: 150.0 mg/kg/injection, schedule: Q04DX004 (sc), vehicle: water): 107 % of control
T/C (dose: 200.0 mg/kg/injection, schedule: Q01DX010 (sc), vehicle: saline with Tween-80): 96 % of control
T/C (dose: 300.0 mg/kg/injection, schedule: Q04DX004 (sc), vehicle: water): 98 % of control and 101 % of control
T/C (dose: 600.0 mg/kg/injection, schedule: Q04DX004 (sc), vehicle: water): 43 % of control

CCOC(=O)c1[nH]c2cccc3c2c1CC(Br)C3=O (centres undefined)
T/C (dose: 150.0 mg/kg/injection, schedule: Q04DX004 (sc), vehicle: saline with Tween-80): 81 % of control
T/C [8]: 81 % of control
T/C [9]: 71 % of control
T/C [10]: 71 % of control

OCCN1CCN(CCCN2c3ccccc3Sc3ccc(C(F)(F)F)cc32)CC1
T/C (dose: 1.25 mg/kg/injection, schedule: Q01DX010 (sc), vehicle: saline): 121 % of control
T/C (dose: 2.5 mg/kg/injection, schedule: Q01DX010 (sc), vehicle: saline): 58 % of control
T/C (dose: 5.0 mg/kg/injection, schedule: Q01DX010 (sc), vehicle: saline): 118 % of control
T/C (dose: 10.0 mg/kg/injection, schedule: Q01DX010 (sc), vehicle: saline): 92 % of control

COC1C(CO)OC(n2cnc3c(=S)nc(N)[nH]c32)C1O (centres undefined)
T/C [4]: 116 % of control

N=c1ccn2c(n1)OC1C(O)C(CO)OC12 (centres undefined)
T/C (dose: 300.0 mg/kg/injection, schedule: Q04DX004 (sc), vehicle: saline): 50 % of control
T/C (dose: 300.0 mg/kg/injection, schedule: Q04DX004 (sc), vehicle: suspension in saline): 105 % of control
T/C (dose: 400.0 mg/kg/injection, schedule: Q04DX004 (sc), vehicle: saline): 98 % of control
T/C (dose: 600.0 mg/kg/injection, schedule: Q04DX004 (sc), vehicle: saline): 60 % of control
T/C (dose: 600.0 mg/kg/injection, schedule: Q04DX004 (sc), vehicle: suspension in saline): 66 % of control
T/C (dose: 800.0 mg/kg/injection, schedule: Q04DX004 (sc), vehicle: saline): 31 % of control
T/C (dose: 1200.0 mg/kg/injection, schedule: Q04DX004 (sc), vehicle: saline): 42 % of control
T/C (dose: 1200.0 mg/kg/injection, schedule: Q04DX004 (sc), vehicle: suspension in saline): 38 % of control
T/C (dose: 1600.0 mg/kg/injection, schedule: Q04DX004 (sc), vehicle: saline): 36 % of control
T/C (dose: 2400.0 mg/kg/injection, schedule: Q04DX004 (sc), vehicle: suspension in saline): 42 % of control

O=c1[nH]c(=O)n(C2OC(CO)C(O)C2O)cc1F (centres undefined)
T/C (dose: 4.69 mg/kg/injection, schedule: Q04DX004 (sc), vehicle: saline): 34 % of control

COC1=C2C[C@@H](C)C[C@@H](OC)[C@@H](O)[C@H](C)/C=C(\C)[C@@H](OC(N)=O)[C@H](OC)/C=C\C=C(/C)C(=O)NC(=CC1=O)C2=O
T/C (dose: 2.0 mg/kg/injection, schedule: Q04DX004 (sc), vehicle: saline): 110 % of control
T/C (dose: 4.0 mg/kg/injection, schedule: Q04DX004 (sc), vehicle: saline): 113 % of control
T/C (dose: 8.0 mg/kg/injection, schedule: Q04DX004 (sc), vehicle: saline): 54 % of control
T/C (dose: 16.0 mg/kg/injection, schedule: Q04DX004 (sc), vehicle: saline): 59 % of control

[CH3][Sn]([CH3])([Cl])[S]CCN
T/C (dose: 18.75 mg/kg/injection, schedule: Q04DX004 (sc), vehicle: suspension in saline): 92 % of control
T/C (dose: 37.5 mg/kg/injection, schedule: Q04DX004 (sc), vehicle: suspension in saline): 65 % of control
T/C (dose: 75.0 mg/kg/injection, schedule: Q04DX004 (sc), vehicle: suspension in saline): 40 % of control

[Cl][Pt+2][Cl].[NH-]CC1(C[NH-])CCC1
T/C (dose: 12.5 mg/kg/injection, schedule: Q04DX004 (sc), vehicle: suspension in saline): 87 % of control
T/C (dose: 25.0 mg/kg/injection, schedule: Q04DX004 (sc), vehicle: suspension in saline): 61 % of control

CNC(=O)OCc1c(COC(=O)NC)c(C)n(-c2ccc(OC)cc2)c1C
T/C (dose: 50.0 mg/kg/injection, schedule: Q04DX004 (sc), vehicle: Klucel (hydroxypropylcellulose) (HPC)): 69 % of control
T/C [1]: 90 % of control
T/C [2]: 46 % of control
T/C [3]: 36 % of control

CCCNC1=C(C)C(=O)C2=C(C1=O)[C@H](COC(N)=O)[C@]1(OC)[C@@H]3N[C@@H]3CN21
T/C (dose: 6.0 mg/kg/injection, schedule: Q04DX003 (sc), vehicle: saline): 78 % of control
T/C (dose: 12.0 mg/kg/injection, schedule: Q04DX003 (sc), vehicle: saline): 1 % of control
